# According to ChEMBL document CHEMBL1201862, “PubChem BioAssay data set” (2004):
#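 Test compounds were applied to cells in 96-well plates for 48 hours at 5 doses. GI50 marks 50% less growth.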 Calls of active or inactive are those of the source. Rule as the data show it: active = GI50 up to about 1.1 µM and inactive = higher.
# How the values were obtained:
# Assay in all cases: growth of human tumour cells (NCI), 48 h
# SK-MEL-2 = system: SK-MEL-2
# NCI-H460 = system: NCI-H460
# RXF 393 = system: RXF 393
# OVCAR-5 = system: OVCAR-5
# NCI-H522 = system: NCI-H522
# SK-MEL-28 = system: SK-MEL-28
# U-251 = system: U-251
# SNB-78 = system: SNB-78
# HOP-62 = system: HOP-62
# HOP-92 = system: HOP-92
# OVCAR-3 = system: OVCAR-3
# KM-20L2 = system: KM-20L2
# A498 = system: A498
# SK-MEL-5 = system: SK-MEL-5
# K562 = system: K562
# SNB-19 = system: SNB-19
# SF-539 = system: SF-539
# NCI-H226 = system: NCI-H226
# HCC 2998 = system: HCC 2998
# M14 = system: M14
# SF-268 = system: SF-268
# HOP-18 = system: HOP-18
# IGROV-1 = system: IGROV-1
# CAKI-1 = system: CAKI-1
# LXFL 529 = system: LXFL 529
# SF-295 = system: SF-295
# SNB-75 = system: SNB-75
# OVCAR-8 = system: OVCAR-8
# UO-31 = system: UO-31
# HCT-116 = system: HCT-116
# SK-OV-3 = system: SK-OV-3
# DMS-114 = system: DMS-114
# SN12C = system: SN12C
# COLO 205 = system: COLO 205
# ACHN = system: ACHN
# HT-29 = system: HT-29
# LOX IMVI = system: LOX IMVI
# EKVX = system: EKVX
# SW-620 = system: SW-620
# UACC-62 = system: UACC-62
# CCRF-CEM = system: CCRF-CEM
# A549 = system: A549
# UACC-257 = system: UACC-257
# Malme-3M = system: Malme-3M
# DMS-273 = system: DMS-273
# HCT-15 = system: HCT-15
# NCI-H23 = system: NCI-H23
# KM12 = system: KM12
# 786-0 = system: 786-0
# M19-MEL = system: M19-MEL
# TK-10 = system: TK-10
# RPMI-8226 = system: RPMI-8226
# HL-60 = system: HL-60
# MOLT-4 = system: MOLT-4
# SR = system: SR
# XF498 = system: XF498
# DLD-1 = system: DLD-1
# OVCAR-4 = system: OVCAR-4
compound,measurement,setting,value
NNC(=O)C(=O)N/N=C(\CCC(=O)Nc1ccc(Cl)cc1)Cc1nc2ccccc2s1,GI50,SK-MEL-2,28.9 µM (inactive)
same,GI50,NCI-H460,28 µM (inactive)
same,GI50,RXF 393,17.2 µM (inactive)
same,GI50,OVCAR-5,33.1 µM (inactive)
same,GI50,NCI-H522,15.5 µM (inactive)
same,GI50,SK-MEL-28,71.8 µM (inactive)
same,GI50,U-251,18.8 µM (inactive)
same,GI50,SNB-78,70.5 µM (inactive)
same,GI50,HOP-62,53.2 µM (inactive)
same,GI50,HOP-92,45.5 µM (inactive)
same,GI50,OVCAR-3,18.2 µM (inactive)
same,GI50,KM-20L2,45.5 µM (inactive)
same,GI50,A498,52 µM (inactive)
same,GI50,SK-MEL-5,21.8 µM (inactive)
same,GI50,K562,18.9 µM (inactive)
same,GI50,SNB-19,30.5 µM (inactive)
same,GI50,SF-539,32.7 µM (inactive)
same,GI50,NCI-H226,> 100 µM (inactive)
same,GI50,HCC 2998,44.7 µM (inactive)
same,GI50,M14,19.7 µM (inactive)
same,GI50,SF-268,25.3 µM (inactive)
same,GI50,HOP-18,5.33 µM (inactive)
same,GI50,IGROV-1,13.6 µM (inactive)
same,GI50,CAKI-1,38.2 µM (inactive)
same,GI50,LXFL 529,26.4 µM (inactive)
same,GI50,SF-295,36.6 µM (inactive)
same,GI50,SNB-75,81.1 µM (inactive)
same,GI50,OVCAR-8,> 100 µM (inactive)
same,GI50,UO-31,11.9 µM (inactive)
same,GI50,HCT-116,28.1 µM (inactive)
same,GI50,SK-OV-3,27.3 µM (inactive)
same,GI50,DMS-114,19.1 µM (inactive)
same,GI50,SN12C,34.6 µM (inactive)
same,GI50,COLO 205,32.7 µM (inactive)
same,GI50,ACHN,26.1 µM (inactive)
same,GI50,HT-29,44.8 µM (inactive)
same,GI50,LOX IMVI,17.7 µM (inactive)
same,GI50,EKVX,27.4 µM (inactive)
same,GI50,SW-620,35.3 µM (inactive)
same,GI50,UACC-62,22.1 µM (inactive)
same,GI50,CCRF-CEM,3.32 µM (inactive)
same,GI50,A549,45.4 µM (inactive)
same,GI50,UACC-257,32.9 µM (inactive)
same,GI50,Malme-3M,44.7 µM (inactive)
same,GI50,DMS-273,15.5 µM (inactive)
same,GI50,HCT-15,19.1 µM
same,GI50,NCI-H23,30.9 µM (inactive)
same,GI50,KM12,51.1 µM (inactive)
same,GI50,786-0,17.3 µM (inactive)
same,GI50,M19-MEL,17.4 µM (inactive)
same,GI50,TK-10,56.1 µM (inactive)
same,GI50,RPMI-8226,25.6 µM (inactive)
same,GI50,HL-60,4.34 µM (inactive)
same,GI50,MOLT-4,18.5 µM (inactive)
same,GI50,SR,11.9 µM (inactive)
COc1cc(CNc2ccc(C)cc2)cc(OC)c1OC,GI50,SK-MEL-2,0.229 µM (active)
same,GI50,NCI-H460,0.252 µM (active)
same,GI50,RXF 393,0.163 µM (active)
same,GI50,OVCAR-5,1.74 µM (inactive)
same,GI50,NCI-H522,0.255 µM (active)
same,GI50,U-251,0.356 µM (active)
same,GI50,HOP-62,0.386 µM (active)
same,GI50,HOP-92,3.34 µM (inactive)
same,GI50,OVCAR-3,0.213 µM (active)
same,GI50,KM-20L2,0.246 µM (active)
same,GI50,SK-MEL-5,0.472 µM (active)
same,GI50,K562,0.0826 µM (active)
same,GI50,SNB-19,0.533 µM (active)
same,GI50,SF-268,0.741 µM (active)
same,GI50,IGROV-1,0.659 µM (active)
same,GI50,LXFL 529,0.635 µM (active)
same,GI50,SNB-75,0.316 µM (active)
same,GI50,OVCAR-8,0.624 µM (active)
same,GI50,UO-31,0.807 µM (active)
same,GI50,SK-OV-3,0.301 µM (active)
same,GI50,DMS-114,0.277 µM (active)
same,GI50,COLO 205,0.219 µM (active)
same,GI50,XF498,0.962 µM (active)
same,GI50,LOX IMVI,0.621 µM (active)
same,GI50,SW-620,0.149 µM (active)
same,GI50,CCRF-CEM,0.252 µM (active)
same,GI50,A549,0.5 µM (active)
same,GI50,DMS-273,0.103 µM (active)
same,GI50,NCI-H23,0.361 µM (active)
same,GI50,786-0,0.384 µM (active)
same,GI50,M19-MEL,0.33 µM (active)
same,GI50,RPMI-8226,0.467 µM (active)
same,GI50,HL-60,0.0764 µM (active)
same,GI50,MOLT-4,0.331 µM (active)
same,GI50,SR,0.138 µM (active)
same,GI50,DLD-1,0.45 µM (active)
Cc1c2cc[n+](C)cc2c(C)c2c1[nH]c1ccc(OC(C)C)cc12,GI50,SK-MEL-2,1.66 µM (inactive)
same,GI50,NCI-H460,2.15 µM (inactive)
same,GI50,OVCAR-5,10.9 µM (inactive)
same,GI50,NCI-H522,1.47 µM (inactive)
same,GI50,SK-MEL-28,2.97 µM (inactive)
same,GI50,HOP-92,2.6 µM (inactive)
same,GI50,OVCAR-3,1.9 µM (inactive)
same,GI50,KM-20L2,3.58 µM (inactive)
same,GI50,A498,6.35 µM (inactive)
same,GI50,SK-MEL-5,1.4 µM (inactive)
same,GI50,SF-539,1.39 µM (inactive)
same,GI50,M14,6.34 µM (inactive)
same,GI50,SF-268,0.474 µM (active)
same,GI50,OVCAR-4,2.16 µM (inactive)
same,GI50,HOP-18,2.54 µM (inactive)
same,GI50,IGROV-1,1.9 µM (inactive)
same,GI50,LXFL 529,0.515 µM (active)
same,GI50,SNB-75,0.239 µM (active)
same,GI50,UO-31,44.1 µM (inactive)
same,GI50,HCT-116,2.91 µM (inactive)
same,GI50,SN12C,0.392 µM (active)
same,GI50,COLO 205,1.28 µM (inactive)
same,GI50,ACHN,11.6 µM (inactive)
same,GI50,HT-29,3.06 µM (inactive)
same,GI50,LOX IMVI,4.19 µM (inactive)
same,GI50,EKVX,6.62 µM (inactive)
same,GI50,SW-620,2.49 µM (inactive)
same,GI50,UACC-62,2.51 µM (inactive)
same,GI50,A549,2.01 µM (inactive)
same,GI50,UACC-257,2.37 µM (inactive)
same,GI50,Malme-3M,1.34 µM (inactive)
same,GI50,DMS-273,2.19 µM (inactive)
same,GI50,HCT-15,> 100 µM
same,GI50,NCI-H23,1.41 µM (inactive)
same,GI50,KM12,1.62 µM (inactive)
same,GI50,M19-MEL,1.64 µM (inactive)
same,GI50,TK-10,19.8 µM (inactive)
same,GI50,RPMI-8226,6.1 µM (inactive)
same,GI50,HL-60,2.56 µM (inactive)
same,GI50,MOLT-4,3.16 µM (inactive)
